Laboratory results taken from the supplement of paper PMC12613149.

Assays:
[1] = reversed-phase LC retention time (C18, 15 min MeOH gradient); higher = more hydrophobic / later elution
Description: (§1)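 Reference mixture of environmental contaminants analysed by RP-LC (BEH C18, 50 °C; ESI+ with water/MeOH plus formic acid and ammonium formate, ESI- with ammonium bicarbonate) coupled to a timsTOF Pro 2 with trapped ion mobility in nitrogen (ramp/accumulation 100 ms). CCS was calibrated with Agilent tune mix (CCS compendium) and averaged over five injections at 0.5-500 ng/mL. The table reports the lowest-CCS (putative monomer) peak; retention times are on the same gradient.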

[2] = collision cross section (TIMS, N2 drift gas) of the primary ion; higher = larger gas-phase ion size
Description: as §1

[3] = ionization mode: ESI+, ion species: [M+H]+
[4] = ionization mode: ESI-, ion species: [M-H]-
[5] = ionization mode: ESI+, ion species: [M]+

Structure (SMILES)	reversed-phase LC retention time [1, 3] [min]	reversed-phase LC retention time [1, 4] [min]	collision cross section [2, 3] [Å²]	collision cross section [2, 4] [Å²]	reversed-phase LC retention time [1, 5] [min]	collision cross section [2, 5] [Å²]
CC(C)(C)c1cc(CCC(=O)NCCCCCCNC(=O)CCc2cc(C(C)(C)C)c(O)c(C(C)(C)C)c2)cc(C(C)(C)C)c1O	17.8	18.3	263.68	254.68		
CCCCC(CC)COC(=O)c1ccc(Nc2nc(Nc3ccc(C(=O)OCC(CC)CCCC)cc3)nc(Nc3ccc(C(=O)OCC(CC)CCCC)cc3)n2)cc1 (stereo unspecified)	19.5		282.62			
CCCCCCCCSc1nc(Nc2cc(C(C)(C)C)c(O)c(C(C)(C)C)c2)nc(SCCCCCCCC)n1	21		263.3			
CCCNCCOc1c(Cl)cc(Cl)cc1Cl	12.1		162.11			
CN(C)c1nc(=O)n(C2CCCCC2)c(=O)n1C	11.7		163.21			
CO/N=C(/C(=O)O)c1ccccc1CO/N=C(\C(=O)O)c1cccc(C(F)(F)F)c1	13.6		195.58			
CO/N=C(/C(=O)O)c1ccccc1CO/N=C(/C(=O)O)c1cccc(C(F)(F)F)c1	13.1		194.45			
O=C(O)C1C(C(=O)O)C2(Cl)C(Cl)=C(Cl)C1(Cl)C2(Cl)Cl (stereo unspecified)		10.3		159.01		
CC(c1ccc(O)cc1)(c1ccc(O)cc1)c1ccc(O)cc1 [1,1,1-Tris(4-hydroxyphenyl)ethane]		12.4		183.23		
Cc1ccccc1N=C(N)Nc1ccccc1C [1,3-Di-o-tolylguanidine]	9.72	11	157.64	158.32		
N=C(Nc1ccccc1)Nc1ccccc1 [1,3-Diphenylguanidine]	8.61		150.19			
O=C(Nc1ccccc1)Nc1ccccc1 [1,3-Diphenylurea]	12.4		148.26			
Nc1ccc2nc3c(N)cccc3nc2c1 [1,7-Diaminophenazine]	8.4		143.6			
CCCCCCCCCCCCS(=O)(=O)O [1-Dodecanesulfonic acid]		16.1		165.42		
CC[n+]1ccn(C)c1 [1-Ethyl-3-methyl-imidazolium]					0.99	115.07
CCCCCCS(=O)(=O)O [1-Hexanesulfonic acid]		9.04		137.49		
Oc1cccc2ccccc12 [1-Naphthol]		14.3		124.62		
CCCCCCCCCCCCCCCCCCN [1-Octadecylamine]	18.4		184.09			
Oc1ccccc1-c1ccccc1O [2,2'-Dihydroxybiphenyl]		15.6		143.93		
O=C(Nc1ccccc1)c1ccccc1SSc1ccccc1C(=O)Nc1ccccc1 [2,2'-Dithiobisbenzanilide]	16.2		195.49			
CCc1cc(Cc2cc(CC)cc(C(C)(C)C)c2O)c(O)c(C(C)(C)C)c1 [2,2'-Methylenebis(4-ethyl-6-t-butylphenol)]		19.3		204.77		
Cc1cc(Cc2cc(C)cc(C(C)(C)C)c2O)c(O)c(C(C)(C)C)c1 [2,2'-Methylenebis(6-tert-butyl-p-cresol)]		18.8		196.67		
Nc1ccc(Cc2ccc(N)c(Cl)c2)cc1Cl [2,2'-dichloro-4,4'-methylenedianiline]	13.8		173.31			
CC(C)C(=O)OCC(C)(C)C(OC(=O)C(C)C)C(C)C (stereo unspecified) [2,2,4-Trimethyl-1,3-pentanediol diisobutyrate]	17		172.79			
C[N+](C)(C)CC1CO1 (stereo unspecified) [2,3-Epoxypropyltrimethylammonium]					0.95	117.85
N[C@@H](Cc1cc(I)c(Oc2ccc(O)c(I)c2)c(I)c1)C(=O)O [3,3',5-Triiodo-L-thyronine]			209.12	199.54		
CCC(=C(c1ccc(O)cc1)c1ccc(OCCN(C)C)cc1)c1ccccc1 [4-Hydroxytamoxifen]			202.55	214.38		
CC(C)(C)c1ccc(O)cc1 [4-tert-Butylphenol]				137.69		

The next lines start with results.

reversed-phase LC retention time [1, 3] [min]	reversed-phase LC retention time [1, 4] [min]	collision cross section [2, 3] [Å²]	collision cross section [2, 4] [Å²]	Structure (SMILES)	reversed-phase LC retention time [1, 5] [min]	collision cross section [2, 5] [Å²]
7.36	7.04	152.57	149.99	Cc1cccc(C)c1NC(=O)CS(=O)(=O)O		
	7.53		159.41	CCc1cccc(C)c1N(C(=O)C(=O)O)C(C)C(=O)O (stereo unspecified)		
	8.5		167.47	CCc1cccc(C)c1N(C(=O)CS(=O)(=O)O)[C@@H](C)C(=O)O		
8.83	8.58	157.12	155.17	CCc1cccc(C)c1NC(=O)CS(=O)(=O)O		
17.9		185.61		CCCCC(CC)COC(=O)c1ccc(N(C)C)cc1 (stereo unspecified)		
15.7		174.76		CCCN(CCOc1c(Cl)cc(Cl)cc1Cl)C(=O)NC=O		
15.8	16.2	214.28	218.21	CNC(=O)c1cc(Oc2ccc(NC(=O)Nc3ccc(Cl)c(C(F)(F)F)c3)cc2)ccn1		
	5.43		159.84	COCC(=O)N(c1c(C)cccc1C(=O)O)C(C)C(=O)O (stereo unspecified)		
15.5		186.57		CO/N=C(/C(=O)O)c1ccccc1CO/N=C(\C)c1cccc(C(F)(F)F)c1		
	4.88		155.56	NC(=O)c1c(Cl)c(Cl)cc(C(=O)O)c1Cl		
8.77	10.6	125.68	122.13	O=c1[nH]sc2ccccc12 [1,2-Benzisothiazolinone]		
6.07		116.95		CN1CCN(C)C1=O [1,3-Dimethyl-2-imidazolidinone]		
13	13.2	149.81	146.03	CN(C)C(=O)Nc1ccc(Cl)c(Cl)c1 [1-(3,4-Dichlorophenyl)-3,3-dimethylurea]		
8.35		154.67		Cn1cnc2c1c(=O)n(CCCC(=O)O)c(=O)n2C [1-(3-carboxypropyl)-3,7-dimethylxanthine]		
13.2		154.52		O=C(Nc1ccccc1)NC1CCCCC1 [1-Cyclohexyl-3-phenylurea]		
6.97		120.11		CCN1CCCC1=O [1-Ethyl-2-pyrrolidinone]		
12.6		145.3		c1ccc2sc(N3CCOCC3)nc2c1 [2(4-morpholinyl)benzothiazole]		
	8.54		151.01	O=C(c1ccc(O)cc1O)c1ccc(O)cc1O [2,2',4,4'-Tetrahydroxybenzophenone]		
		180.93		CC(=O)[C@H]1CC[C@H]2[C@@H]3CCC4=CC(=O)CC[C@]4(C)[C@H]3CC[C@]12C [Progesterone]		
